Results on one compound are retold here after US20090234150A1, “Use of ppar-alpha agonists to treat skeletal muscle wasting disorders” (priority 2006, published 2009).

The test system of the assay is ischemic muscle necrosis. The following applies: wild type mice, 0.5 g/kg/day by gavage for 10 days prior to femoral artery ligation. The text has this:
To assess the muscle protective effect of the PPAR-alpha agonist fenofibrate, wild type mice received fenofibrate (0.5 g/kg/day; Cayman Chemical, Ann Arbor, Mich., USA) by gavage, or vehicle alone for 10 days prior to femoral artery ligation. Two days after femoral artery ligation muscle necrosis was subsequently analyzed on histological sections of the crural muscles.
Limb ischemia was induced by high unilateral right or bilateral ligation of the femoral artery and vein, and of the cutaneous vessels branching from the caudal femoral artery, sparing the femoral nerve. Crural muscles were dissected and processed for histological analysis 2 d or 7 d after ligation.
The crural muscles were dissected, fixed in 4% PFA, dehydrated, embedded in paraffin, and sectioned at 10 μm thickness. Microscopic analysis was performed with a Zeiss Axioplan 2 imaging microscope, equipped with an Axiocam HrC camera and KS300 morphometry software (Zeiss). Capillary density, fiber size, and the cross-sectional area of viable and necrotic zones were quantified on eight entire sections (each 320 μm apart) of the crural muscles.

For `CC(C)OC(=O)C(C)(C)Oc1ccc(C(=O)c2ccc(Cl)cc2)cc1` [fenofibrate], the “prevention of ischemic muscle necrosis” value (analysed two days after ligation, versus vehicle) was 60%. The “% necrotic area/total cross-sectional area” value (crural muscles two days after ligation, n=4, P=0.002 (vehicle 86.3±8.2%)) came to 34.3±7%.
